Measurements reported in ChEMBL document CHEMBL1909046, “DrugMatrix in vitro pharmacology data”.
pIC50, pKi: −log10 of the molar value.

Experiments:
[1] = target: Prostaglandin G/H synthase 1 (Homo sapiens, UniProt P23219); experiment: biochemical; assay type: tissue-based, Platelet;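 further: inhibition of COX-1 enzyme activity, with arachidonic acid supplied as substrate; in other assays of this panel Not Active means under 50% inhibition at 10 µM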
Melanocortin receptor 3 = Melanocortin receptor 3 (Homo sapiens, UniProt P41968); assay type: cell membranes, HEK293, Membrane; conditions: hek293; further: in other assays of this panel Not Active means under 50% inhibition at 10 µM
[2] = target: T1, Alpha-1D adrenergic receptor (Homo sapiens, UniProt P25100); assay type: cell membranes, HEK293, Membrane; conditions: hek293; further: in other assays of this panel Not Active means under 50% inhibition at 10 µM
T1 sequence (P25100 whole entry): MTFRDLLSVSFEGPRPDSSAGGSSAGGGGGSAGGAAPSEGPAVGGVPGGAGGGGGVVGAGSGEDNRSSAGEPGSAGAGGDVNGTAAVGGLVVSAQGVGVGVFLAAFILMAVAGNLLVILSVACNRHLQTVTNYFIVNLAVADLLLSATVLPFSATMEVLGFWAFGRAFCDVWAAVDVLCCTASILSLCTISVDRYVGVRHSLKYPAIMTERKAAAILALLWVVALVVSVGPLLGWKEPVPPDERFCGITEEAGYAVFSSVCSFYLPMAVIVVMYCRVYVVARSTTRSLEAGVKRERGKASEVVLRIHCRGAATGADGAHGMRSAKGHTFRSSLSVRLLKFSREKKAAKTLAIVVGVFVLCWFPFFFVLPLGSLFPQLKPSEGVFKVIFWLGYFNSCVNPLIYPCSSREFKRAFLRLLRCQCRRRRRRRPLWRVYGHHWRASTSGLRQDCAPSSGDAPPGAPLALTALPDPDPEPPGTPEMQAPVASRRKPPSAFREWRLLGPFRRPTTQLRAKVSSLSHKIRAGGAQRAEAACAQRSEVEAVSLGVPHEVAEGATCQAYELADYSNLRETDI

Histamine H2 receptor = Histamine H2 receptor (Homo sapiens, UniProt P25021); assay type: cell membranes, CHO-K1, Membrane; further: in other assays of this panel Not Active means under 50% inhibition at 10 µM
Glycine receptor = Glycine receptor (Rattus norvegicus, UniProt P22771+P24524+P07727+P20781); assay type: cell membranes, Wistar, Spinal cord, Membrane; further: in other assays of this panel Not Active means under 50% inhibition at 10 µM
Adenosine receptor A2a = Adenosine receptor A2a (Homo sapiens, UniProt P29274); experiment: DRUGMATRIX: Adenosine A2A radioligand binding (ligand: […]); assay type: cell membranes, HEK293, Membrane; conditions: hek293; Not Active = under 50% inhibition at 10 µM
Chain of Adenosine receptor A2a (P29274 whole entry): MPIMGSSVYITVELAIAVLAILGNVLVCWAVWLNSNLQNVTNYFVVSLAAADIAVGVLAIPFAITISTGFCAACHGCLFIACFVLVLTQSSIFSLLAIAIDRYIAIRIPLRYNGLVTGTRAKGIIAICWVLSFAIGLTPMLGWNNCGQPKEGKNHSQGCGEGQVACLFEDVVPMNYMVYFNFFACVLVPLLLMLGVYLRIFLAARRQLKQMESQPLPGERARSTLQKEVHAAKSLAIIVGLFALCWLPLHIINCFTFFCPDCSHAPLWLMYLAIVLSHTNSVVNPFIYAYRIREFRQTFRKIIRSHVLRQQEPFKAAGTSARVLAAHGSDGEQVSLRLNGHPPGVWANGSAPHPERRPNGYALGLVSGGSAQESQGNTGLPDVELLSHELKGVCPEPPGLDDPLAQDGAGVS

Chain of Prostaglandin G/H synthase 1 (P23219 whole entry): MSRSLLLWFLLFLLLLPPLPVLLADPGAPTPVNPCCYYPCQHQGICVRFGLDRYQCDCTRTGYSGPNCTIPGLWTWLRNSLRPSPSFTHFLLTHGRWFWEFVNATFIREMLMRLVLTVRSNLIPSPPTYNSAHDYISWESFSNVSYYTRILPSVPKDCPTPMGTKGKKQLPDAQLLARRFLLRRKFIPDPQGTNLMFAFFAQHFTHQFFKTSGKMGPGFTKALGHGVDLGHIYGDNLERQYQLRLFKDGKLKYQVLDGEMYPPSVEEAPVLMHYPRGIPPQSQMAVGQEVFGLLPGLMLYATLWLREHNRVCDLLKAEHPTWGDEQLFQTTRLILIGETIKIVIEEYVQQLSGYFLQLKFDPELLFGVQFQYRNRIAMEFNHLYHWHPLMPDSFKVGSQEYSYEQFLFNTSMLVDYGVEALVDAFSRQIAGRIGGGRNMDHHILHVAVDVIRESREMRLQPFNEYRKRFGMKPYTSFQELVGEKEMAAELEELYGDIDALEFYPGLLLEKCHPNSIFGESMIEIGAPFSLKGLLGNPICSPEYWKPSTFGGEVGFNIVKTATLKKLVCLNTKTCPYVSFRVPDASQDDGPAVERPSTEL
Chain of Histamine H2 receptor (P25021 whole entry): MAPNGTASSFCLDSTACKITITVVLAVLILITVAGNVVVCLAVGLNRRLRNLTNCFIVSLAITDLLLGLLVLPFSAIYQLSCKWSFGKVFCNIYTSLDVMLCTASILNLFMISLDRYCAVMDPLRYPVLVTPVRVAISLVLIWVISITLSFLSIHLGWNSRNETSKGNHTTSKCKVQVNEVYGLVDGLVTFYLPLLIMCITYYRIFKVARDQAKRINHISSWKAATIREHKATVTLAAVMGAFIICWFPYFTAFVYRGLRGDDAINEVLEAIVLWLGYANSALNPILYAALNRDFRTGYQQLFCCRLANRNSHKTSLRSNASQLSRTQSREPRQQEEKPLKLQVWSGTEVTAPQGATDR
Chain of Melanocortin receptor 3 (P41968 whole entry): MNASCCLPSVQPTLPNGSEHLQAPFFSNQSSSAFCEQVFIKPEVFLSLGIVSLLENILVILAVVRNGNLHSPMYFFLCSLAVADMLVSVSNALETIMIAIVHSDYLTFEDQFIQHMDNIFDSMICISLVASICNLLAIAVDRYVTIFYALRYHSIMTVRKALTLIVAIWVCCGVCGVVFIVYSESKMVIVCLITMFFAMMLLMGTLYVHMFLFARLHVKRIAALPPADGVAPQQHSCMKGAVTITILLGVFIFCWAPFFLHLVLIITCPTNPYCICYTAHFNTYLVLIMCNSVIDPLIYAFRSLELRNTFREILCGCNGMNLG

COC(=O)Nc1nc2ccc(C(=O)c3ccccc3)cc2[nH]1 [MEBENDAZOLE]
IC50 ([1]; platelet): Not Active | IC50 (Melanocortin receptor 3): Not Active | IC50 [2]: Not Active | IC50 (Histamine H2 receptor; cho-k1): Not Active | IC50 (Glycine receptor): Not Active | IC50 (Adenosine receptor A2a): Not Active

CCOC(=O)C1=C(C)NC(C)=C(C(=O)OCC)C1c1ccccc1/C=C/C(=O)OC(C)(C)C [LACIDIPINE]
IC50 ([1]; platelet): Not Active | IC50 (Melanocortin receptor 3): Not Active | IC50 [2]: Not Active | IC50 (Histamine H2 receptor; cho-k1): Not Active | IC50 (Glycine receptor): Not Active | IC50 (Adenosine receptor A2a): Not Active

O=C(OC[C@H]1O[C@@H](OC(=O)c2cc(O)c(O)c(OC(=O)c3cc(O)c(O)c(O)c3)c2)[C@H](OC(=O)c2cc(O)c(O)c(OC(=O)c3cc(O)c(O)c(O)c3)c2)[C@@H](OC(=O)c2cc(O)c(O)c(OC(=O)c3cc(O)c(O)c(O)c3)c2)[C@@H]1OC(=O)c1cc(O)c(O)c(OC(=O)c2cc(O)c(O)c(O)c2)c1)c1cc(O)c(O)c(OC(=O)c2cc(O)c(O)c(O)c2)c1 [TANNIC ACID]
IC50 ([1]; platelet): Not Active | IC50 (Melanocortin receptor 3): Not Active | IC50 [2]: Not Active | IC50 (Histamine H2 receptor; cho-k1): Not Active | IC50 (Glycine receptor): Not Active | IC50 (Adenosine receptor A2a): Not Active

CC#C[C@]1(O)CC[C@H]2[C@@H]3CCC4=CC(=O)CCC4=C3[C@@H](c3ccc(N(C)C)cc3)C[C@@]21C [MIFEPRISTONE]
IC50 ([1]; platelet): Not Active | IC50 (Melanocortin receptor 3): Not Active | IC50 [2]: Not Active | IC50 (Histamine H2 receptor; cho-k1): Not Active | IC50 (Glycine receptor): Not Active | IC50 (Adenosine receptor A2a): Not Active

CC(O)C(=O)O (stereo not given) [LACTIC ACID]
IC50 ([1]; platelet): Not Active | IC50 (Melanocortin receptor 3): Not Active | IC50 [2]: Not Active | IC50 (Histamine H2 receptor; cho-k1): Not Active | IC50 (Glycine receptor): Not Active | IC50 (Adenosine receptor A2a): Not Active

Cc1ccnc(NS(=O)(=O)c2ccc(N)cc2)n1 [SULFAMERAZINE]
IC50 ([1]; platelet): Not Active | IC50 (Melanocortin receptor 3): Not Active | IC50 [2]: Not Active | IC50 (Histamine H2 receptor; cho-k1): Not Active | IC50 (Glycine receptor): Not Active | IC50 (Adenosine receptor A2a): Not Active

CC(C)(C)NC[C@H](O)COc1cccc2c1CCCC2=O [LEVOBUNOLOL]
IC50 ([1]; platelet): Not Active | IC50 (Melanocortin receptor 3): Not Active | IC50 [2]: Not Active | IC50 (Histamine H2 receptor; cho-k1): Not Active | IC50 (Glycine receptor): Not Active | IC50 (Adenosine receptor A2a): Not Active

CCOc1cc(N)c(Cl)cc1C(=O)NCC1CN(Cc2ccc(F)cc2)CCO1 (stereo not given) [MOSAPRIDE]
IC50 ([1]; platelet): Not Active | IC50 (Melanocortin receptor 3): Not Active | IC50 [2]: Not Active | IC50 (Histamine H2 receptor; cho-k1): Not Active | IC50 (Glycine receptor): Not Active | IC50 (Adenosine receptor A2a): Not Active

CC(=O)O[C@]1(C(C)=O)CC[C@H]2[C@@H]3C[C@H](C)C4=CC(=O)CC[C@]4(C)[C@H]3CC[C@@]21C [MEDROXYPROGESTERONE ACETATE]
IC50 ([1]; platelet): Not Active | IC50 (Melanocortin receptor 3): Not Active | IC50 [2]: Not Active | pIC50 (Histamine H2 receptor; read-out: IC50): 4.55 | pKi (Histamine H2 receptor; read-out: Ki): 4.56 | IC50 (Glycine receptor): Not Active | IC50 (Adenosine receptor A2a): Not Active

OC[C@@H](O)[C@@H](O)[C@H](O)[C@H](O)CO [MANNITOL]
IC50 ([1]; platelet): Not Active | IC50 (Melanocortin receptor 3): Not Active | IC50 [2]: Not Active | IC50 (Histamine H2 receptor; cho-k1): Not Active | IC50 (Glycine receptor): Not Active | IC50 (Adenosine receptor A2a): Not Active

CC(Cl)(Cl)Cl [TRICHLOROETHANE]
IC50 ([1]; platelet): Not Active | IC50 (Melanocortin receptor 3): Not Active | IC50 [2]: Not Active | IC50 (Histamine H2 receptor; cho-k1): Not Active | IC50 (Glycine receptor): Not Active | IC50 (Adenosine receptor A2a): Not Active

LEAD(IV) ACETATE
IC50 ([1]; platelet): Not Active | Ki ([1]; platelet): Not Active | IC50 (Melanocortin receptor 3): Not Active | Ki (Melanocortin receptor 3): Not Active | IC50 [2]: Not Active | Ki [2]: Not Active | IC50 (Histamine H2 receptor; cho-k1): Not Active | Ki (Histamine H2 receptor; cho-k1): Not Active | IC50 (Glycine receptor): Not Active | Ki (Glycine receptor): Not Active | IC50 (Adenosine receptor A2a): Not Active | Ki (Adenosine receptor A2a): Not Active

O=C(c1ccccc1)c1ccc2n1CCC2C(=O)O (stereo not given) [KETOROLAC]
pIC50 ([1]; read-out: IC50): 7.89 | IC50 (Melanocortin receptor 3): Not Active | IC50 [2]: Not Active | IC50 (Histamine H2 receptor; cho-k1): Not Active | IC50 (Glycine receptor): Not Active | IC50 (Adenosine receptor A2a): Not Active
